The text below walks through data of PubChem BioAssay (NCI).

What all share (assay): growth of human tumour cells (NCI), 48 h
The test system of assay [1] is A498 renal.
Assay [2] concerns ACHN renal.
Assay [3] concerns COLO 205 colon.
The test system of assay [4] is HCC-2998 colon.
In assay [5] the test system is KM12 colon.
The test system of assay [6] is NCI-H23 lung.
In assay [7] the test system is NCI-H460 lung.
Assay [8] has as its system OVCAR-3 ovarian.
Assay [9] relates to SF-539 CNS.
Assay [10] deals with UO-31 renal.

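Protocol summary: plate cells (96-well), add compound at 5 concentrations, incubate 48 h, interpolate endpoints linearly. GI50 = concentration required for 50% inhibition of growth. The concentration for full growth arrest is given as TGI.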 Some results are limits rather than exact numbers.

Consider `COC(=O)/C=C1\SC(=Nc2ccc(C(F)(F)F)cc2)N(CCc2c[nH]c3ccccc23)C1=O`, for which the GI50 in assay [1] is 1.5 µM; in [2], 1.56 µM; in assay [3], 1.88 µM; in assay [4] it was 1.86 µM; in assay [5] it was 1.74 µM; in assay [6], 1.76 µM. Also, the GI50 is 2.04 µM in assay [7], 1.5 µM in assay [8], 1.62 µM in [9] and 1.3 µM in [10]. Also, the TGI in [1] stood at 2.98 µM; in [2], 2.9 µM; in [3] it was 3.65 µM; in assay [4] it was 3.43 µM; in [5] it was 3.62 µM; in [6], 3.64 µM. The TGI in assay [7] was determined as 4.28 µM; in assay [8] it was 2.9 µM; in assay [9], 3.02 µM; in assay [10] it was 2.56 µM.

On to `O=C(CSc1nc2ccc([N+](=O)[O-])cc2[nH]1)Nc1cccc(C(F)(F)F)c1`, for which the GI50 was 0.963 µM in assay [1]; 2.42 µM in assay [2]; 1.71 µM in assay [3]; 2.8 µM in assay [4]; 2.2 µM in [5]; 1.98 µM in [6]. Further, the GI50 is 2.88 µM in assay [7], 1.66 µM in assay [8], 2.9 µM in assay [9] and 1.81 µM in assay [10]. For the same compound, the TGI in [1] is 3.52 µM; in [2] it was 8.21 µM; in [3], 3.47 µM; in assay [4] it was 12.2 µM; in assay [5] it was 8.08 µM; in assay [6], 8.81 µM. The TGI stood at 11.3 µM in assay [7], 11 µM in [8], 11.7 µM in assay [9] and 8.9 µM in [10].

As to `O=C1C(Cl)=C(Oc2ccccc2)C(=O)c2ccccc21`, the GI50 was 9.24 µM in assay [1]; 1.63 µM in assay [2]; 1.68 µM in [3]; 4.28 µM in assay [4]; 2.84 µM in assay [5]; 9.49 µM in assay [6]. In addition, the GI50 in assay [7] was 5.57 µM; in assay [8], 1.83 µM; in assay [9] it was 5.96 µM; in assay [10] it was 1.23 µM. In addition, the TGI in assay [1] came out at 22.6 µM; in assay [2], 3.14 µM; in assay [3] it was 3.24 µM; in [4] it was 15.9 µM; in assay [5] it was 8.84 µM; in assay [6] it was 24.5 µM. The TGI in [7] was 23.1 µM; in [8], 3.42 µM; in assay [9], 14.2 µM; in assay [10], 3.23 µM.

Consider `c1ccc(Oc2c3ccccc3nc3ccccc23)cc1`, for which the GI50 in [1] was 4.49 µM; in assay [2] it was 3.61 µM; in assay [3], 2.61 µM; in assay [4], 2.87 µM; in [5], 3.64 µM; in assay [6], 3.71 µM. Moreover, the GI50 in assay [7] is 3.29 µM; in assay [8] it was 3.41 µM; in assay [9] it was 2 µM; in assay [10], 5.64 µM. Also, the TGI worked out at 25.8 µM in assay [1]; 13.7 µM in assay [2]; 6.07 µM in assay [3]; 7.97 µM in assay [4]; 11 µM in [5]; 14.3 µM in assay [6]. Also, the TGI in assay [7] was found to be 10.3 µM; in assay [8], 13.2 µM; in assay [9] it was 5.22 µM; in [10] it was 19.1 µM.

For `COc1ccc(-c2nc3sccn3c2/C=C/C(=O)c2cc(OC)c(OC)c(OC)c2)cc1OC`, the GI50 in assay [1] was 2.6 µM; in assay [2] it was 3.24 µM; in assay [3], 2.41 µM; in [4], 2.72 µM; in assay [5] it was 2.04 µM; in assay [6] it was 2.16 µM. Further, the GI50 was 1.99 µM in assay [7], 2.18 µM in assay [8], 1.78 µM in [9] and 0.639 µM in [10]. The TGI was 8.2 µM in [1]; over 100 µM in [2]; 5.98 µM in assay [3]; 4.79 µM in assay [4]; 4.53 µM in [5]; 5.89 µM in assay [6]. The TGI came to 3.76 µM in assay [7], 5.71 µM in [8], 3.74 µM in [9] and 8.19 µM in assay [10].

As to `CC1=C2C(=CC(C)(CO)C2O)C(=O)C(C)(O)C12CC2` (centres undefined), the TGI in assay [1] amounted to 0.0204 µM; in assay [2], 0.0132 µM; in assay [3], 0.0115 µM; in [4], 0.00903 µM; in assay [5], 0.0219 µM; in [6] it was 0.00996 µM. Further, the TGI in assay [7] was 0.0046 µM; in assay [8], 0.019 µM; in [9], 0.0152 µM; in assay [10] it was 0.039 µM. Moreover, the GI50 in assay [3] is 0.00454 µM; in assay [10], 0.0164 µM.

For `Cc1ccc(C)c(-n2c(-c3ccc(Br)cc3)csc2=NC(=O)c2ccccc2F)c1`, the GI50 in assay [1], in assay [3], in assay [4], in assay [8], in [9] and in assay [10] was over 100 µM throughout. Moreover, the TGI in [1], in [3], in assay [4], in [8], in [9] and in assay [10] was over 100 µM throughout.

Turning to `COc1cc(-c2cc(C(=O)Nc3nc4ccccc4s3)nc3cc(-c4ccccc4)nn23)cc(OC)c1OC`, the GI50 is 9.29 µM in [1]; 45.7 µM in assay [2]; over 100 µM in assay [4]; 22.6 µM in assay [5]; 11.5 µM in assay [6]; 29.1 µM in [7]. In addition, the GI50 in [8] is 13.3 µM; in [9], 1.31 µM; in assay [10], over 100 µM. In addition, the TGI was 36.7 µM in [1]; over 100 µM in [2]; over 100 µM in assay [4]; over 100 µM in assay [5]; over 100 µM in assay [6]; over 100 µM in assay [7]. The TGI in assay [8] was 52.1 µM; in [9], 9.09 µM; in assay [10] it was over 100 µM.

With `C=CC[P@@]1(=O)O[C@H](c2ccccc2)C(C)N1C(C)C` (some centres undefined), the TGI in [1], in [2], in assay [4], in [5], in assay [6] and in assay [7] was over 100 µM in each case. Also, the TGI in assay [8], in [9] and in assay [10] was over 100 µM throughout.

Regarding `Cc1cc(Cl)ccc1NC(=O)/C(Cc1nc2ccc(C(=O)c3ccccc3)cc2[nH]c1=O)=N/NC(=O)c1ccncc1`, the TGI in assay [1], in [2], in assay [4], in [5], in assay [6] and in assay [7] was over 100 µM in each case. Moreover, the TGI in [8], in assay [9] and in assay [10] was over 100 µM in each case.

`CCOC(=O)c1sc2ncn(Cc3cccc(Cl)c3)c(=O)c2c1C`: the GI50 in [1] was 15.9 µM; in assay [2], 14.7 µM; in assay [3] it was 20.7 µM; in assay [5], 13.7 µM; in assay [6], 14.7 µM; in assay [7], 18.7 µM. Besides, the results for the GI50 in assay [8], in assay [9] and in assay [10] were 12.6 µM, 19.3 µM and 13.5 µM, respectively. For the same compound, the TGI in [1] worked out at 30.7 µM; in assay [2], 27.9 µM; in assay [3], 36.6 µM; in assay [5], 37.9 µM; in [6], 27.9 µM; in assay [7], 39.7 µM. In addition, the TGI in [8] was found to be 25.1 µM; in assay [9], 33.4 µM; in assay [10] it was 26.4 µM.

As to `CN(C)CCCNC(=O)c1cc(NC(=O)c2cc(NC(=O)CCCN3c4ccccc4C=Cc4ccccc43)cn2C)cn1C`, the GI50 was 22.4 µM in [1]; 14.7 µM in [2]; 2.17 µM in [4]; 2.42 µM in [5]; 10.6 µM in [6]; 5.19 µM in [7]. In addition, the GI50 was 13.4 µM in assay [8], 5.57 µM in assay [9] and 23.5 µM in [10]. Also, the TGI in assay [1] is 53.3 µM; in assay [2], 33.6 µM; in [4] it was 4.03 µM; in assay [5] it was 10.8 µM; in assay [6], 54.8 µM; in assay [7], over 100 µM. Also, the TGI in [8] turned out to be 54.2 µM; in assay [9] it was 33.5 µM; in [10], 59.7 µM.

For `COC(=O)C(=O)C(C(=O)C(=O)Nc1ccc([N+](=O)[O-])cc1[N+](=O)[O-])c1nc2ccc([N+](=O)[O-])cc2[nH]c1=O` (centres undefined), the TGI in assay [1], in assay [2], in assay [3], in [4], in assay [5] and in assay [6] was over 100 µM throughout. Besides, the TGI in [7], in [8] and in assay [10] was over 100 µM in each case.

For `Cc1cc(N(CCC#N)CCC#N)ccc1N=Nc1ccccc1[N+](=O)[O-]`, the TGI in [1], in [2], in [3], in assay [4], in [5] and in assay [6] was over 100 µM throughout. Also, the TGI in assay [8], in assay [9] and in assay [10] was over 100 µM throughout.

As to `Cc1ccc(C)c(NC(=O)CC2C(=O)Nc3ccccc3S2(=O)=O)c1` (centres undefined), the TGI in [1], in assay [2], in assay [4], in assay [6], in [7] and in [8] was over 100 µM in each case. The TGI was 82.5 µM in [9] and over 100 µM in assay [10].

For `O=C(O)CSCC(=O)c1ccccc1`, the TGI in assay [1], in assay [2], in assay [3], in assay [5], in assay [6] and in assay [7] was over 100 µM in each case. The TGI in [8], in [9] and in assay [10] was over 100 µM each time.

As for `COc1cccc2c(Nc3ccc(C(=O)NCCNCCO)cc3)cc(-c3ccccc3)nc12`, the GI50 in assay [1] was 62.5 µM; in [3], 23.6 µM; in assay [4], 49.6 µM; in assay [5], 33.2 µM; in assay [6], 63.3 µM; in assay [8] it was 39.2 µM. For the same compound, the GI50 in assay [9] was 40.9 µM; in [10], over 100 µM. For the same compound, the TGI was over 100 µM in assay [1]; 86.6 µM in assay [3]; over 100 µM in [4]; over 100 µM in assay [5]; over 100 µM in [6]; over 100 µM in assay [8]. Further, the TGI in [9] and in [10] was over 100 µM throughout.

For `O=C(Nc1ccccc1)O/N=C1/CCCC/C1=C\c1ccccc1`, the TGI was determined as 53.6 µM in assay [1]; 30.5 µM in [2]; 28.2 µM in assay [3]; 41.7 µM in assay [4]; 48.8 µM in assay [6]; 28.3 µM in [7]. Also, the TGI in assay [8] is 28.5 µM; in [9], 31.7 µM; in [10] it was 27 µM.

On to `O=C(O)C(Cc1ccccc1-c1ccccc1)C(=O)O`, for which the TGI in assay [1], in assay [2], in assay [3], in [5], in [6] and in assay [7] was over 100 µM in each case. Besides, the TGI in assay [8], in [9] and in [10] was over 100 µM in each case.

As for `COC(=O)C1Cc2c(n(C)c3ccccc23)C(c2ccccc2)N1` (centres undefined), the TGI in [1], in assay [2], in [3], in assay [4], in [5] and in [6] was over 100 µM in each case. For the same compound, the TGI in assay [7], in assay [8] and in assay [10] was over 100 µM throughout.
